The values below come from patent US20220110916A1, “Antioxidant and Use Thereof” (Bioradical Research Institute Corp., priority 2019, published 2022).

The test system of data set [1] is rat auricular subcutaneous blood vessel. Put plainly: Vasodilation of rat auricular subcutaneous blood vessel after intravenous administration. The data set is classed as in vivo. The text has this: Oxidative stress caused by reactive oxygen species is known to reduce NO production in vascular endothelial cells, resulting in vasoconstriction and decreased blood flow. Therefore, using vasodilation as an indicator, it was examined whether the antioxidant of the present invention scavenges reactive oxygen species in vivo.
Eight-week old or older female rats (Wistar, body weight: approximately 200 g, n=1) were anesthetized by subcutaneous administration of urethane so as to be […] body weight. The hair of the auricles of the rats was then removed and the rats were fixed on a fixing table. […]
BisEP-C3 was dissolved in a saline solution to achieve a concentration of 3 mg/ml. […] Then, the hemodynamic course of the rat auricular subcutaneous blood vessel was photographed and recorded using a microscope at a predetermined period of time (30, 60, 120 or 180 minutes) before and after the administration.
The obtained images were classified into three blood vessel thicknesses (thick: 35-45 μm, medium: 15-20 μm, thin: 7-9 μm) based on the diameter of the blood vessel before administration. […] Further, for each selected site, the relative blood vessel diameter was calculated after the measurement of the blood vessel diameter, with the blood vessel diameter before administration being a reference (1). […]

Data set [2] relates to rat neuroid cells B50. The experiment in a line: Toxicity evaluation, cell viability by Alamar Blue after 24 hours. In kind it is cell-based. As to conditions: 12.5, 25, 50, 100, or 200 μmol/l, FIG. 5. As to the method: Rat neuroid cells B50 were seeded in 12-well plates and then cultured. Edaravone (RC), ED2AP, or BisEp-C3 was added to each well so as to achieve a predetermined concentration (12.5, 25, 50, 100, or 200 μmol/l), and then incubated for 24 hours at 37° C. and 5% CO2. Cell viability in each well after the culture was measured using Alamar Blue.

Data set [3] relates to neutrophils isolated from the peripheral blood of healthy individuals. The experiment in a line: Superoxide production amount of PMA-stimulated neutrophils with PBS solutions stored for 10 days vs immediately after preparation. The data set is classed as cell-based, human. As to conditions: PBS solution stored for 10 days vs immediately after preparation; 0, 6.25, 12.5, 25, 50, 100 or 20 μmol/l; FIG. 4. As to the method: (§1) First, ED2AP, BisEp-C3, edaravone, BisEp-C1, or BisEp-C1 (H2) was added to a neutrophil of 4×10^5 cells per sample so as to achieve a predetermined concentration (0, 12.5, 25, 50, 100, or 200 μmol/l, or 0, 125, 250, 500, 1250, 2500, or 5000 μmol/l) with 5 μmol of CLA, and then the cell suspension was seeded in flat-bottomed 96-well plates. The volume of the suspension was 200 μl/well, and phenol red free Ca+, Mg+ HBSS was used as the solution. In addition, the neutrophil was stimulated by adding PMA so as to achieve a concentration of 100 ng/ml. After the stimulation, a plate reader (Envision 2104 Multilabel Reader, produced by Perkin Elmer Co., Ltd.) was used to measure the chemiluminescence value over time for 30 minutes with the PMA stimulation time being a reference. The measurement interval was 30 seconds. The sum of the chemiluminescence values obtained every 30 seconds for 30 minutes was taken as the superoxide production amount. In addition, as a control, the superoxide production amount was measured in the same manner except that each compound was not added. The relative value of the superoxide production amount when each compound was added was calculated with the superoxide production amount of the control being 100.
PBS solutions of ED2AP, BisEp-C3, and edaravone were prepared in the same manner as in Example 2 and stored for 10 days. The superoxide production amount was calculated in the same manner as in Example 4 except that the PBS solution after storage was added instead of ED2AP, BisEp-C3, edaravone, BisEp-C1 or BisEp-C1 (H2) so as to achieve a predetermined concentration (0, 6.25, 12.5, 25, 50, 100 or 20 μmol/l) of ED2AP, BisEp-C3 or edaravone. Further, PBS solutions of ED2AP, BisEp-C3, and edaravone were prepared in the same manner as in Example 2, and the superoxide production amount was calculated in the same manner except that the PBS solution immediately after preparation was used. Then, the relative value of the superoxide production amount of each sample was calculated with the superoxide production amount of the sample of 0 μmol/l being 100.

A short description of data set [4]: Storage stability in pH7.4-PBS or pure water at 37° C. protected from light, residual rate by HPLC. The data set is classed as physicochemical. As to conditions: 200 μmol/l; for Residual rate (%) After 1 week / Residual rate (%) After 2 weeks: 37° C., protected from light; for Residual rate (%) Initial concentration: initial concentration (reference 100%). As to the method: The storage stability of edaravone, EMPO, ED2AP, and BisEp-C3 of the following formula (A) were examined. Specifically, edaravone, EMPO, ED2AP, and BisEp-C3 were dissolved in pH7.4-PBS or pure water so as to have a final concentration of 200 μmol/l to prepare dissolved solutions of these compounds. When the compounds were difficult to be dissolved, they were dissolved in an ultrasonic cleaner with warm water at 40° C.
Under the measurement conditions for HPLC described below, the initial concentration was quantified, and then each solution was stored in an oven, which was protected from light, at 37° C., and quantified under the same measurement conditions after 1 week and 2 weeks, to determine residual rate (%) with the initial concentration (100%) being a reference.
Measurement conditions for HPLC
PDA detector (Format: SPD-M20A) HPLC Assay Conditions:
Column: Atlantis dC18 5 μm (250×4.6 mm I.D.; produced by Waters)
Column temperature: 45° C.
Detection method: UV (254 nm)
Eluate A: pH3 buffer solution (adjusted to pH3 by adding phosphoric acid to 0.05M KH2PO4 aqueous solution)/methanol=90/10

The subject of data set [5] is neutrophils isolated from the peripheral blood of healthy individuals. The experiment in a line: Superoxide production amount of PMA-stimulated neutrophils, CLA chemiluminescence. Particulars: for relative value of the superoxide production amount: 0-200 μmol/l or 0-5000 μmol/l, PMA 100 ng/ml, control being 100, FIG. 2; for reactive oxygen species-eliminating ability compared with edaravone: PMA-stimulated neutrophils, FIG. 2(A). The data set is classed as cell-based, human. As to the method: For examining the reactive oxygen-eliminating effect of the antioxidant of the present invention, the superoxide produced by the neutrophils when the neutrophils isolated from the peripheral blood of healthy individuals were stimulated with PMA (phorbor-12-myristate-13-acetate) was used. The superoxide production amount was measured by chemiluminescence using CLA (2-methyl-6-pjenyl-3, 7-dihydroimidazo[1,2-a]pyrazine-3-one).
as §1

Regarding `CCN1N=C(C)/C(=C\C=C\c2c(C)nn(CC)c2O)C1=O` (racemic) [BisEp-C3, 2,4-dihydro-4-[3-(1-ethyl-5-hydroxy-3-methyl-1H-pyrazol-4-yl)-2-propen-1-ylidene]-2-ethyl-5-methyl-3H-pyrazol-3-one], the “relative value of the blood vessel diameter” value in data set [1] (3 mg/kg body weight intravenously, 30, 60, 120 or 180 minutes, vs saline control, n=1, FIG. 10) was “dilated at any time after administration as compared to the control”. The “severity of dilatation of the blood vessel diameter by blood vessel size” value in data set [1] (3 mg/kg intravenously, thick 35-45 μm, medium 15-20 μm, thin 7-9 μm) is given as “remarkably observed in the smaller blood vessels”. The “cytotoxicity (cell viability)” value in data set [2] is listed as “not cytotoxic at any concentration”. In addition, the “superoxide-eliminating ability after storage” value in data set [3] is on record as “maintained the superoxide-eliminating ability equivalent to that immediately after preparation even after storage”. Further, in data set [4] (Pure water), the “Residual rate (%) After 1 week” value turned out to be 99.4%, the “Residual rate (%) After 2 weeks” value turned out to be 88.5% and the “Residual rate (%) Initial concentration” value is given as 100%. Further, in data set [4] (pH 7.4-PBS), the “Residual rate (%) After 1 week” value is 98.7%, the “Residual rate (%) After 2 weeks” value was 93.6% and the “Residual rate (%) Initial concentration” value worked out at 100%. In addition, in data set [5], the “relative value of the superoxide production amount” value is “suppressed the superoxide production amount in a concentration-dependent manner” and the “reactive oxygen species-eliminating ability compared with edaravone” value was “more potent than edaravone at high concentrations”.

As to `CC1=NN(c2ccccc2)C(=O)/C1=C/C=C/c1c(C)nn(-c2ccccc2)c1O` (racemic) [ED2AP, 2,4-dihydro-4-[3-(5-hydroxy-3-methyl-1-phenyl-1H-pyrazol-4-yl)-2-propen-1-ylidene]-5-methyl-2-phenyl-3H-pyrazol-3-one], the “cytotoxicity (cell viability)” value in data set [2] is “not cytotoxic at any concentration”. The “superoxide-eliminating ability after storage” value in data set [3] is “maintained the superoxide-eliminating ability equivalent to that immediately after preparation even after storage”. Further, in data set [4] (Pure water), the “Residual rate (%) After 1 week” value was found to be 96.1%, the “Residual rate (%) After 2 weeks” value turned out to be 89.8% and the “Residual rate (%) Initial concentration” value worked out at 100%. Moreover, in data set [4] (pH 7.4-PBS), the “Residual rate (%) After 1 week” value was found to be 96.2%, the “Residual rate (%) After 2 weeks” value is recorded as 91.3% and the “Residual rate (%) Initial concentration” value is given as 100%. In addition, in data set [5], the “relative value of the superoxide production amount” value is on record as “suppressed the superoxide production amount in a concentration-dependent manner” and the “reactive oxygen species-eliminating ability compared with edaravone” value is “more potent than edaravone at high concentrations”.
